Results published in patent US8497237B2 (Signature Therapeutics, Inc., priority 2011, dated 2013).

Key:
[1] = Oral administration of Compound KC-7 co-dosed with trypsin inhibitor Compound 109 to rats (oxycodone in plasma); format: in vivo, rat; conditions: PO co-dosing, indicated by suppressed Cmax and/or delayed Tmax
[2] = Pharmacokinetics following PO administration to dogs (oxycodone in plasma)
[3] = Spacer leaving group cyclization rate (disappearance of compound in phosphate buffer); conditions: for half-life (compound disappearance, cyclization): 2.18 mM initial, 50 mM pH 7.4 phosphate buffer, 20° C.
trypsin = biological target: T1, trypsin (Bos taurus, UniProt P00760); assay: In vitro trypsin-mediated prodrug cleavage; format: biochemical, bovine; conditions: bovine, trypsin from bovine pancreas; 0.761 mM prodrug, Tris pH 8, 37° C.; adjusted to 4815 BAEE U/mL trypsin
T1 construct: trypsin from bovine pancreas; purchased Sigma-Aldrich T8003; host or cells: bovine pancreas (tissue-derived)
T1 sequence (P00760 24-246): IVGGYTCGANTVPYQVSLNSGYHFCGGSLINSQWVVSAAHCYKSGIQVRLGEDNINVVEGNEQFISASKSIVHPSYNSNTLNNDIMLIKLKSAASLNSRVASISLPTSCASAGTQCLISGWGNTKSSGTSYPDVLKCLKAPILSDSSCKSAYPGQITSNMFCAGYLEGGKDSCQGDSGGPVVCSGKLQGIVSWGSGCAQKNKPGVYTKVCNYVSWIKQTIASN
Procedure: (§1) The reactions were conducted at 37° C. for 24 h.
(§2) Table 3 indicates the results of exposure of Compound KC-7 to trypsin. […] Table 3 also indicates the cyclization rates of the cyclizable spacer leaving group of Compound KC-23. The results are expressed as half-life of compound disappearance. Since Compound KC-23 is a diastereomer, two peaks (A and B) were analyzed; the peak area of peak B was greater than that of peak A.

[4] = biological target: T2, trypsin from bovine pancreas (Bos taurus, UniProt P00760); assay: In vitro trypsin-mediated prodrug cleavage; format: biochemical
T2 construct: trypsin from bovine pancreas; purchased Sigma-Aldrich T8003; host or cells: bovine pancreas (tissue-derived)
T2 sequence (P00760 24-246): T1 sequence (P00760 24-246)
Procedure: as §1, §2

In the case of `N=C(N)c1ccc2cc(OC(=O)c3ccc(N=C(N)N)cc3)ccc2c1` [Compound 109, 6-carbamimidoylnaphthalen-2-yl 4-(diaminomethyleneamino) benzoate], the “effect of trypsin inhibitor on oxycodone release from Compound KC-7” value [1] is reported as “attenuate Compound KC-7's ability to release oxycodone in rats in a dose-dependent manner”.
For `COc1ccc2c3c1O[C@H]1C(OC(=O)N(C)[C@@H](CNC(=O)[C@H](CCCNC(=N)N)NC(=O)CNC(C)=O)C(=O)N(C)CC(=O)O)=CC[C@@]4(O)[C@@H](C2)N(C)CC[C@]314` [Compound KC-7, N-1-[(S)-2-(oxycodone-6-enol-carbonyl-methyl-amino)-2-carbonyl-sarcosine-ethylamine]-arginine-glycine-acetate], the “plasma PK profile of oxycodone release compared to OxyContin tablets and oxycodone” value ([2]; dogs, PO) was “resembles that of OxyContin® tablets more than that of oxycodone”, the “release of oxycodone into dog plasma compared to Compound KC-3” value ([2]; dogs, PO) was “significantly enhanced release of oxycodone into dog plasma (higher Cmax and AUC) as well as a more rapid Tmax” and the “cyclization of the spacer leaving group” value ([3]; shown by the cyclization rate of Compound KC-23) was “can cyclize”. The half-life at 0.761 mM (trypsin) was 11.76 ± 0.0186 min, the OC formation rate ([4]; 0.761 mM prodrug, Tris pH 8, 37° C.) was 0.339 ± 0.032 μmol/h/BAEE U and the cleavage by trypsin ([4]; in vitro) was “can be cleaved by trypsin”.
For “N-1-[2-(oxycodone-6-enol-carbonyl-methyl-amino)-ethylamine]-arginine-malonic acid [Compound KC-3]”, the “AUC ± sd” value ([2]; oxycodone in dog plasma, AUC 0 to 24 h, PO […] (KC-7 4.88, KC-3 4.15, oxycodone 2 mg/kg), OxyContin one 20 mg tablet) was 65.6 ± 22 ng·h/mL and the “OC Cmax ± sd” value ([2]; oxycodone in dog plasma, PO […] (KC-7 4.88, KC-3 4.15, oxycodone 2 mg/kg), OxyContin one 20 mg tablet) was 10.2 ± 3.3 ng/mL.
For “[(S)-1-(oxycodone-6-enol-carbonyl-methyl-amino)-1-carbonyl-sarcosine]ethylamine [KC-23, peak A]”, the “half-life (compound disappearance, cyclization)” value [3] was 7.22 ± 0.03 h.
With “[(S)-1-(oxycodone-6-enol-carbonyl-methyl-amino)-1-carbonyl-sarcosine]ethylamine [KC-23, peak B]” the “half-life (compound disappearance, cyclization)” value [3] was 5.80 ± 0.08 h.
